# Results from publication PMC6033295, “The Effects of the Honey-Roasting Process on the Pharmacokinetics of the Six Active Compounds of Licorice” (Evidence-based Complementary and Alternative Medicine : eCAM, 2018).
# Like-named read-outs stand apart in the source and are kept apart here.
# Legend:
# [1] = Pharmacokinetic study in rats after oral administration of raw/honey-roasting licorice water decoction (UPLC-MS/MS of plasma); format: in vivo, Wistar rats; conditions: for AUC(0-t) / Cmax / Tmax / AUC0-24h: 2.7 g (crude drug)/kg, rat plasma, n = 5; for AUC(0-t): read-out: AUC0-24h
# Protocol: Healthy male Wistar rats (weighing 200 ± 20 g) were obtained from the Laboratory Animal Centre of Shanghai Jiao Tong University (Shanghai, China). […] All protocols and procedures were approved by the Shanghai Jiao Tong University Animal Care and Use Committee.
# Chromatographic separation was performed on a ZORBAX Eclipse Plus C18 column (50 mm × 2.1 mm, 1.8 µm). […] The flow rate was set at 0.4 mL/min. The column temperature and injection volume were set at 40°C and 2.0 µL, respectively. An MS system operating in negative electrospray ionization mode was employed in this study. […] The DP for each compound and IS were -120, -100, -100, -100, -100, -80, and -100 V, respectively. The collision energy for each compound and IS were -58, -32, -42, -32, -32, -65, and -20 V, respectively. The ion spray needle voltage was set at -4500 V, and the source temperature was 500°C. Following optimization of the setting parameters, the ESI source was operated with the GS1, GS2, and CUR (Nitrogen) set at 35, 35, and 40 psi, respectively.
# Fifty microliters of the plasma samples (or standard plasma samples and QC samples) were spiked with 5 µL of IS solution (10.00 µg/mL) and 200 µL of acetonitrile. The mixture was vortexed for 30 s and centrifuged at 14,000 rpm for 15 min at 4°C. The supernatant was collected and evaporated in a 37°C water bath under a nitrogen stream. The residue was redissolved with 500 µL of 70% acetonitrile.
# After being housed in a controlled environment for a week, rats were randomly divided into three groups (n = 5 for each group) and were then orally administered a raw, 25% honey-roasting, or 50% honey-roasting licorice water decoction at a dosage of 2.7 g (crude drug)/kg. Blood samples of 0.15 mL were taken from the suborbital vein into heparinized tubes at 0.17, 0.5, 1, 1.5, 2, 2.5, 3, 4, 6, 8, 12, and 24 h after oral administration of the licorice water decoction. The blood samples were immediately centrifuged at 10,000 rpm for 15 min. The separated plasma samples were frozen at -80°C before analysis.
# The pharmacokinetic parameters of the six compounds were calculated by […] 4.4.1 (Thermo Electron Corporation, Philadelphia, PA, USA) software. […] Data were presented as the mean ± SD. Statistical analyses of all the data obtained were evaluated using one-way ANOVA (SPSS 17.0).
# [2] = Stability of six compounds in rat plasma (QC samples); format: in vitro ADME; conditions: n = 6
# Protocol: The stabilities of the six compounds in rat plasma were evaluated by analyzing QC samples under different conditions. […] Long-term stability was tested by storing QC samples at -80°C for one month. RSD was evaluated by analyzing six replicate samples. The stability of the six compounds was evaluated under various conditions.
# [3] = parameters: method as in PMID 8197226, PMID 1432618; conditions: cited from earlier work
# [4] = male, Wistar, rat, plasma, po, oral 25% honey-roasting licorice water decoction
# [5] = male, Wistar, rat, plasma, po, oral 25% honey-roasting licorice water decoction, read-out: Cmax
# [6] = male, Wistar, rat, plasma, po, oral 25% honey-roasting licorice water decoction, read-out: Tmax
# [7] = male, Wistar, rat, plasma, po, oral 50% honey-roasting licorice water decoction
# [8] = male, Wistar, rat, plasma, po, oral 50% honey-roasting licorice water decoction, read-out: Cmax
# [9] = male, Wistar, rat, plasma, po, oral 50% honey-roasting licorice water decoction, read-out: Tmax
# [10] = male, Wistar, rat, plasma, po, oral raw licorice water decoction
# [11] = male, Wistar, rat, plasma, po, oral raw licorice water decoction, read-out: Cmax
# [12] = oral raw licorice water decoction
# [13] = At 4°C for 24 h, postpreparative QC sample in autosampler, high concentration level
# [14] = At 4°C for 24 h, postpreparative QC sample in autosampler, low concentration level
# [15] = At 4°C for 24 h, postpreparative QC sample in autosampler, medium concentration level
# [16] = At -80°C for 1 month, rat plasma QC sample, low concentration level
# [17] = At -80°C for 1 month, rat plasma QC sample, medium concentration level
# [18] = 25% honey-roasting group vs raw group, rat, oral
# [19] = At -80°C for 1 month, rat plasma QC sample, high concentration level
# [20] = male, Wistar, rat, in vivo, po, oral 50% honey-roasting licorice water decoction
# [21] = oral 25% honey-roasting licorice water decoction
# [22] = oral 50% honey-roasting licorice water decoction
SMILES,"AUC(0-t) [1, 4] [ng·h/mL]","Cmax [1, 5] [ng/mL]","Tmax [1, 6] [h]","AUC(0-t) [1, 7] [ng·h/mL]","Cmax [1, 8] [ng/mL]","Tmax [1, 9] [h]","AUC(0-t) [1, 10] [ng·h/mL]","Cmax [1, 11] [ng/mL]","Tmax [1, 12] [h]","Stability, Average [2, 13] [%]","Stability, Average [2, 14] [%]","Stability, Average [2, 15] [%]","Stability, Average [2, 16] [%]","Stability, Average [2, 17] [%]","Stability, Average [2, 19] [%]","AUC(0-t) [1, 20] [ng·h/mL]",also measured
"CC1(C)[C@@H](O)CC[C@]2(C)[C@H]3C(=O)C=C4[C@@H]5C[C@@](C)(C(=O)O)CC[C@]5(C)CC[C@@]4(C)[C@]3(C)CC[C@@H]12 [GA, glycyrrhetinic acid]",7000 ± 1290,651 ± 200,6.8,5180 ± 2540,608 ± 278,6.8,6980 ± 4800,572 ± 311,8.0,100.9,96.4,96.2,96.2,102.1,–,–,–
"CC1(C)[C@@H](O[C@H]2O[C@H](C(=O)O)[C@@H](O)[C@H](O)[C@H]2O[C@@H]2O[C@H](C(=O)O)[C@@H](O)[C@H](O)[C@H]2O)CC[C@]2(C)[C@H]3C(=O)C=C4[C@@H]5C[C@@](C)(C(=O)O)CC[C@]5(C)CC[C@@]4(C)[C@]3(C)CC[C@@H]12 [Glycyrrhizin, glycyrrhizin]",–,–,–,–,–,–,–,–,–,–,–,–,–,–,–,–,oral bioavailability [3]: extremely low
"O=C(/C=C/c1ccc(O)cc1)c1ccc(O)cc1O [ILG, isoliquiritigenin]",9.32 ± 0.68,1.12 ± 0.25,1.5,6.13 ± 0.8,0.56 ± 0.12,1.8,6.53 ± 2.34,0.75 ± 0.28,–,93.1,95.7,96.4,94.7,85.3,87.6,–,"Cmax higher than in the raw group [1, 18]: 49.3%; AUC0-24h increased over the raw licorice group ([1]; honey-roasting licorice vs raw licorice group, rat, oral): 42.7%; Tmax ([1]; male, Wistar, rat, plasma, po, oral raw licorice water decoction, read-out: Tmax): 1.5 h"
"O=C(/C=C/c1ccc(O[C@@H]2O[C@H](CO)[C@@H](O)[C@H](O)[C@H]2O)cc1)c1ccc(O)cc1O [ILQ, isoliquiritin]",–,–,–,–,–,–,–,–,–,95.7,90.2,89.3,89.4,94.2,100.1,246 ± 7.67,"Cmax lower than in the raw group [1, 18]: 48.07%; Tmax longer than in the raw group [1, 18]: 1.75 times; Tmax ([1]; male, Wistar, in vivo, oral 25% honey-roasting licorice water decoction, read-out: Tmax): 0.7 h; AUC(0-t) ([1]; male, Wistar, rat, in vivo, po, oral 25% honey-roasting licorice water decoction): 260 ± 8.53 ng·h/mL; Cmax ([1]; male, Wistar, rat, in vivo, po, oral 25% honey-roasting licorice water decoction, read-out: Cmax): 24.8 ± 3.63 ng/mL; Cmax ([1]; male, Wistar, rat, in vivo, po, oral 50% honey-roasting licorice water decoction, read-out: Cmax): 20.6 ± 5.82 ng/mL; AUC(0-t) ([1]; male, Wistar, rat, in vivo, po, oral raw licorice water decoction): 257 ± 19.3 ng·h/mL; Cmax ([1]; male, Wistar, rat, in vivo, po, oral raw licorice water decoction, read-out: Cmax): 47.8 ± 2.62 ng/mL"
"O=C1C[C@@H](c2ccc(O)cc2)Oc2cc(O)ccc21 [LG, liquiritigenin]",–,–,–,–,–,–,–,–,2.4,93.9,90.8,87.7,92.8,–,96.5,–,"AUC0-24h [1, 21]: 85.36 ± 14.70 ng·h/mL; Tmax [1, 21]: 2.3 h; AUC0-24h [1, 22]: 47.74 ± 8.03^∗Δ h·ng /mL; Tmax [1, 22]: 2.5 h; AUC0-24h [1, 12]: 84.29 ± 33.71 ng·h/mL"
"O=C1C[C@@H](c2ccc(O[C@@H]3O[C@H](CO)[C@@H](O)[C@H](O)[C@H]3O)cc2)Oc2cc(O)ccc21 [LQ, liquiritin]",479 ± 65.2,203 ± 54.1,–,–,87.9 ± 8.08,–,520 ± 94.5,–,–,99.5,90.9,88.3,96.4,95.6,89.5,319 ± 50,"Cmax lower than in the raw licorice group ([1]; 50% honey-roasting group vs raw licorice group, rat, oral): 53.96%; Cmax [1, 12]: 191.00 ± 80.23 ng/mL"
